In the NIST ThermoML archive (doi:10.1021/je900276q):
Several values for one entry are separate records, joined by “and”; a condition that tells them apart may be missing. Equal entries are not always repeated. ± gives the expanded uncertainty stated by the source.

Conditions: Crystal, Calculated from knudsen effusion weight loss

[I][Ga]([I])[I] [gallium iodide]
Conditions	vapor or sublimation pressure
344.5 K	0.0001445 ± 1.3e-05 kPa
346 K	0.0001698 ± 1.5e-05 kPa and 0.0001445 ± 1.3e-05 kPa
347 K	0.000195 ± 1.7e-05 kPa
348 K	0.000195 ± 1.7e-05 kPa
348.5 K	0.0001445 ± 1.3e-05 kPa
349 K	0.000195 ± 1.7e-05 kPa
349.5 K	0.0002455 ± 2.2e-05 kPa and 0.0002951 ± 2.6e-05 kPa
350 K	0.000195 ± 1.7e-05 kPa
351.5 K	0.0003388 ± 3e-05 kPa
352 K	0.0002455 ± 2.2e-05 kPa
352.5 K	0.0003388 ± 3e-05 kPa
354 K	0.0004365 ± 3.8e-05 kPa and 0.0003388 ± 3e-05 kPa
355 K	0.0003388 ± 3e-05 kPa and 0.000389 ± 3.4e-05 kPa
356 K	0.0004365 ± 3.8e-05 kPa
357 K	0.0004365 ± 3.8e-05 kPa
357.5 K	0.0006761 ± 5.9e-05 kPa and 0.0004898 ± 4.3e-05 kPa
359.5 K	0.000537 ± 4.7e-05 kPa
361.5 K	0.0006761 ± 5.9e-05 kPa
362 K	0.000871 ± 7.6e-05 kPa
364 K	0.0009333 ± 8.2e-05 kPa and 0.0007762 ± 6.8e-05 kPa
365.5 K	0.0009772 ± 8.6e-05 kPa
367 K	0.001148 ± 0.00012 kPa
367.5 K	0.00123 ± 0.00013 kPa
368.5 K	0.001122 ± 0.00012 kPa and 0.00123 ± 0.00013 kPa
370 K	0.001413 ± 0.00016 kPa
372 K	0.001445 ± 0.00016 kPa and 0.00166 ± 0.00019 kPa
372.5 K	0.00166 ± 0.00019 kPa
373 K	0.001905 ± 0.00022 kPa and 0.001738 ± 0.0002 kPa
374.5 K	0.002042 ± 0.00023 kPa and 0.001995 ± 0.00023 kPa
375.5 K	0.002291 ± 0.00026 kPa
377 K	0.002399 ± 0.00028 kPa
377.5 K	0.002692 ± 0.00032 kPa
378 K	0.002951 ± 0.00035 kPa
379 K	0.002951 ± 0.00035 kPa
380 K	0.002951 ± 0.00035 kPa
381.5 K	0.003715 ± 0.00045 kPa
382 K	0.004266 ± 0.00052 kPa
383 K	0.00389 ± 0.00047 kPa
383.5 K	0.004169 ± 0.00051 kPa
384 K	0.004898 ± 0.00061 kPa
387.5 K	0.006607 ± 0.00085 kPa and 0.006026 ± 0.00076 kPa and 0.00631 ± 0.0008 kPa
389.5 K	0.007244 ± 0.00093 kPa
390.5 K	0.00871 ± 0.0011 kPa and 0.007244 ± 0.00093 kPa
391.5 K	0.00871 ± 0.0011 kPa
393.5 K	0.01096 ± 0.0015 kPa and 0.01 ± 0.0013 kPa
394 K	0.009772 ± 0.0013 kPa
397 K	0.0138 ± 0.0019 kPa
398 K	0.01349 ± 0.0018 kPa
400.5 K	0.01778 ± 0.0025 kPa
401 K	0.01698 ± 0.0024 kPa

[Cl][Ga]([Cl])[Cl] [gallium chloride]
Conditions	vapor or sublimation pressure
289 K	0.004266 ± 0.00052 kPa
290.5 K	0.005754 ± 0.00073 kPa
292 K	0.006166 ± 0.00078 kPa
293 K	0.006761 ± 0.00087 kPa and 0.006918 ± 0.00089 kPa
293.5 K	0.007413 ± 0.00096 kPa
294 K	0.007943 ± 0.001 kPa
295.5 K	0.00912 ± 0.0012 kPa
296 K	0.008913 ± 0.0012 kPa
297 K	0.01148 ± 0.0015 kPa and 0.01072 ± 0.0014 kPa and 0.01047 ± 0.0014 kPa
298 K	0.01175 ± 0.0016 kPa
298.5 K	0.01175 ± 0.0016 kPa
299 K	0.01318 ± 0.0018 kPa
299.5 K	0.01349 ± 0.0018 kPa
300.5 K	0.01413 ± 0.0019 kPa and 0.0138 ± 0.0019 kPa
301 K	0.0166 ± 0.0023 kPa
302 K	0.01698 ± 0.0024 kPa
303 K	0.01905 ± 0.0027 kPa and 0.0182 ± 0.0026 kPa
303.5 K	0.02089 ± 0.003 kPa
304.5 K	0.02042 ± 0.0029 kPa
305 K	0.02344 ± 0.0034 kPa and 0.02089 ± 0.003 kPa
306 K	0.02512 ± 0.0036 kPa and 0.02754 ± 0.004 kPa
307 K	0.02884 ± 0.0042 kPa and 0.0263 ± 0.0038 kPa
308 K	0.0309 ± 0.0045 kPa and 0.02951 ± 0.0043 kPa and 0.02818 ± 0.0041 kPa

[F][Ga]([F])[F] [gallium fluoride (GaF3)]
Conditions	vapor or sublimation pressure
808 K	4.677e-05 ± 4.1e-06 kPa
810 K	3.981e-05 ± 3.5e-06 kPa
813 K	4.677e-05 ± 4.1e-06 kPa
816 K	4.677e-05 ± 4.1e-06 kPa
818 K	6.31e-05 ± 5.5e-06 kPa
820 K	5.495e-05 ± 4.8e-06 kPa
822 K	6.31e-05 ± 5.5e-06 kPa
827 K	9.55e-05 ± 8.4e-06 kPa and 7.943e-05 ± 7e-06 kPa
830 K	9.55e-05 ± 8.4e-06 kPa
835 K	0.0001096 ± 9.6e-06 kPa
836 K	0.0001413 ± 1.2e-05 kPa
837 K	0.0001096 ± 9.6e-06 kPa
839 K	0.0001259 ± 1.1e-05 kPa
842 K	0.0002239 ± 2e-05 kPa
843 K	0.0001413 ± 1.2e-05 kPa
844 K	0.000257 ± 2.3e-05 kPa
845 K	0.0001905 ± 1.7e-05 kPa and 0.0002818 ± 2.5e-05 kPa
846 K	0.000166 ± 1.5e-05 kPa
847 K	0.0001738 ± 1.5e-05 kPa and 0.000257 ± 2.3e-05 kPa
852 K	0.0002692 ± 2.4e-05 kPa
853 K	0.0002188 ± 1.9e-05 kPa and 0.0003715 ± 3.2e-05 kPa
854 K	0.0004074 ± 3.6e-05 kPa
855 K	0.0002344 ± 2.1e-05 kPa and 0.0004677 ± 4.1e-05 kPa
856 K	0.0002512 ± 2.2e-05 kPa
857 K	0.0003715 ± 3.3e-05 kPa
859 K	0.0006026 ± 5.3e-05 kPa
861 K	0.0003802 ± 3.3e-05 kPa
862 K	0.0003162 ± 2.8e-05 kPa
863 K	0.0005888 ± 5.1e-05 kPa and 0.0005495 ± 4.8e-05 kPa
864 K	0.0003311 ± 2.9e-05 kPa
866 K	0.0005495 ± 4.8e-05 kPa
867 K	0.0003802 ± 3.3e-05 kPa
869 K	0.0005248 ± 4.6e-05 kPa
870 K	0.0008913 ± 7.8e-05 kPa
871 K	0.0004365 ± 3.8e-05 kPa and 0.0008128 ± 7.1e-05 kPa
872 K	0.0004571 ± 4e-05 kPa and 0.0008128 ± 7.1e-05 kPa
874 K	0.0007413 ± 6.5e-05 kPa
876 K	0.000537 ± 4.7e-05 kPa
878 K	0.0007586 ± 6.6e-05 kPa
880 K	0.0006166 ± 5.4e-05 kPa and 0.001096 ± 0.00012 kPa
881 K	0.001349 ± 0.00015 kPa
882 K	0.0006457 ± 5.6e-05 kPa
884 K	0.0009772 ± 8.6e-05 kPa and 0.001259 ± 0.00014 kPa
885 K	0.0007943 ± 7e-05 kPa and 0.001175 ± 0.00013 kPa
890 K	0.0008511 ± 7.4e-05 kPa and 0.000871 ± 7.6e-05 kPa and 0.001585 ± 0.00018 kPa
893 K	0.001413 ± 0.00016 kPa and 0.002089 ± 0.00024 kPa
894 K	0.001202 ± 0.00013 kPa and 0.001862 ± 0.00021 kPa and 0.001622 ± 0.00018 kPa
895 K	0.001096 ± 0.00012 kPa
898 K	0.002138 ± 0.00025 kPa
900 K	0.001349 ± 0.00015 kPa
901 K	0.001862 ± 0.00021 kPa and 0.002042 ± 0.00023 kPa
902 K	0.002399 ± 0.00028 kPa
903 K	0.00166 ± 0.00019 kPa and 0.002884 ± 0.00034 kPa
904 K	0.001622 ± 0.00018 kPa
907 K	0.002818 ± 0.00033 kPa
909 K	0.002455 ± 0.00029 kPa and 0.001778 ± 0.0002 kPa
910 K	0.00389 ± 0.00047 kPa and 0.002818 ± 0.00033 kPa
911 K	0.002138 ± 0.00025 kPa
913 K	0.002188 ± 0.00025 kPa and 0.003467 ± 0.00042 kPa
916 K	0.002455 ± 0.00029 kPa and 0.003802 ± 0.00046 kPa
918 K	0.00309 ± 0.00037 kPa
919 K	0.00389 ± 0.00047 kPa
920 K	0.00537 ± 0.00067 kPa
921 K	0.002884 ± 0.00034 kPa
923 K	0.003236 ± 0.00039 kPa
924 K	0.005012 ± 0.00063 kPa
925 K	0.005248 ± 0.00066 kPa
928 K	0.007079 ± 0.00091 kPa
929 K	0.005495 ± 0.00069 kPa
934 K	0.007413 ± 0.00096 kPa
935 K	0.007244 ± 0.00093 kPa
938 K	0.00955 ± 0.0013 kPa
939 K	0.007413 ± 0.00096 kPa
942 K	0.00955 ± 0.0013 kPa
945 K	0.01023 ± 0.0014 kPa
946 K	0.009333 ± 0.0012 kPa
947 K	0.01288 ± 0.0018 kPa
948 K	0.01175 ± 0.0016 kPa
955 K	0.01445 ± 0.002 kPa
956 K	0.01413 ± 0.0019 kPa
958 K	0.01698 ± 0.0024 kPa and 0.01318 ± 0.0018 kPa
